Measured values published in ChEMBL document CHEMBL1128010, “Novel HO-DPAT (hydroxy-2-dipropylaminotetralin) isomers: Stereoselective synthesis and receptor binding studies” (Bioorg Med Chem Lett, 1994).

What was measured:
Assay type in all cases: cell membranes, Striatum, Membrane
D(1A) dopamine receptor = D(1A) dopamine receptor (Rattus norvegicus, UniProt P18901); assay: Compound was evaluated for its affinity to Dopamine receptor D1 labelled with [3H]-SCH- 23390 in rat striatal membranes
D(2) dopamine receptor [1] = target: T1, D(2) dopamine receptor (Rattus norvegicus, UniProt P61169); assay: Compound was evaluated for its affinity to Dopamine receptor D2 labelled with [3H]spiroperidol in rat striatal membranes
T1 sequence (P61169 whole entry): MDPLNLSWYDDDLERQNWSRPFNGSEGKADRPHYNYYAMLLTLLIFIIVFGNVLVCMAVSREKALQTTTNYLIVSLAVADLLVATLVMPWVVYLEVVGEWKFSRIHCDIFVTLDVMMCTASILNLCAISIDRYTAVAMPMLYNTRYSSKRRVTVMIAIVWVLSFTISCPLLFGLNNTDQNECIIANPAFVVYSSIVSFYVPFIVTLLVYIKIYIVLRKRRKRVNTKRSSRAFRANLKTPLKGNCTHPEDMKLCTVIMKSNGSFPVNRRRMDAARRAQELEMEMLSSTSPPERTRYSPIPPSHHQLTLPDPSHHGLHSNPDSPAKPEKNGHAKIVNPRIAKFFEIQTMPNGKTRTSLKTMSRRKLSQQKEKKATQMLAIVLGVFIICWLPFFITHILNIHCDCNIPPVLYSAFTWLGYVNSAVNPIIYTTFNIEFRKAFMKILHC

D(2) dopamine receptor [2] = target: T1, D(2) dopamine receptor; assay: Compound was evaluated for its affinity to Dopamine receptor D2 labelled with [3H]pramipexole in rat striatal membranes

D(1A) dopamine receptor, sequence (P18901 whole entry): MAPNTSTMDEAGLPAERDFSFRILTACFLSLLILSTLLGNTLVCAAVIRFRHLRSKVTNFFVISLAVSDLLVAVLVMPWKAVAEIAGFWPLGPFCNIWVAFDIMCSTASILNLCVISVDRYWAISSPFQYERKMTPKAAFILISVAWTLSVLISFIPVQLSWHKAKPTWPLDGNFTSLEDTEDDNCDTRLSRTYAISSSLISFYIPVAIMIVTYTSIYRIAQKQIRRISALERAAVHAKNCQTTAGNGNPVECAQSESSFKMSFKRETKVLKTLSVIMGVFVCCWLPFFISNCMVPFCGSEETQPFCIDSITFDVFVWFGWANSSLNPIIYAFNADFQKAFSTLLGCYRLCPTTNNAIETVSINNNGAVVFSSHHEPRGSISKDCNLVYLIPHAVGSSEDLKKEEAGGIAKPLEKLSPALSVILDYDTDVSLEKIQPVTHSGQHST

With `CCCN(CCC)C1Cc2ccccc2[C@H](O)C1` (stereo partly specified) the Ki (D(1A) dopamine receptor) was over 50 µM, the Ki (D(2) dopamine receptor [1]) was 13.9 µM and the Ki (D(2) dopamine receptor [2]) was 0.0357 µM.
Compound `CCCN(CCC)C1Cc2ccccc2[C@@H](O)C1` (stereo partly specified) has a Ki (D(1A) dopamine receptor) of over 50 µM, a Ki (D(2) dopamine receptor [1]) of 13 µM and a Ki (D(2) dopamine receptor [2]) of 0.262 µM.
